Test results reported in patent US12329733B2, “Acetyl-leucine or a pharmaceutically acceptable salt thereof for improved mobility and cognitive function” (INTRABIO LTD., priority 2016, dated 2025).

Key:
[1] = system: patients with postural imbalance / gait disorder; subjects; assay: clinical examination and patient/family reports of balance, gait, dizziness and falls; format: in vivo, human
Description: In addition to the mobility assessments disclosed above, mobility in a subject having a mobility disorder associated with ageing may be tested, for example, using assessments of balance and/or through monitoring the number of falls experienced by the subject.

[2] = system: rat model of an acute unilateral labyrinthectomy; conditions: by activation of the vestibulo-cerebellum and deactivation of the posterolateral thalamus; ref (4); cited from earlier work

Compound | improvement during treatment ([1]; Example 2: person, balance disorder, Datscan borderline pathological) | improvement during treatment ([1]; Example 5: patient, progressive gait disorder) | effect on postural compensation [2]
N[C@@H](Cc1ccc(O)c(O)c1)C(=O)O [L-Dopa] | no improvement was observed | No improvement was observed | 
CC(=O)N[C@@H](CC(C)C)C(=O)O [N-acetyl-L-leucine] |  |  | significant effect
